# In patent US12246081B2, “Deodorant compositions” (Conopco, Inc., priority 2017, dated 2025):
# System: S. hominis B10 C-S β lyase
# Test: Transformation of Cys-3M3SH to 3M3SH by purified S. hominis B10 C-S β lyase
# Type: biochemical, Staphylococcus hominis
# Details: for % inhibition: 2 mM Cys-3M3SH, 35° C. for 24 hours, relative to control without compound; for susceptibility of S. hominis C-S β-lyase to inhibition by classical inhibitors: qualitative statement, no concentration given
# Description: The compounds identified by present invention represent a new class of deodorant actives that can be screened by the method disclosed herein. The method uses an odour-generating C-S β-lyase, in particular S. hominis B10 C-S β-lyase. In accordance with the procedure detailed in Example 1, the medium of the screening method comprises a 20 millimolar concentration of the compound to be screened. The medium further comprises S. hominis C-S β-lyase enzyme and 2 millimolar Cys-3M3SH. Following an incubation at 35° C. for a period of 24 hours, the reduction in 3M3SH released by S. hominis C-S β-lyase from Cys-3M3SH is measured. Herein, the inhibition of 3M3SH level is relative to a control without any compound being screened. In preferred embodiments, following the procedure detailed in Example 1, the medium comprises a 10 millimolar concentration of compound to be screened. In further preferred embodiments, the concentration of the compound to be screened can be 5 millimolar, preferably 2 millimolar, more preferably 1 millimolar, most preferably 0.5 millimolar.
# The deodorant actives affecting S. hominis C-S β lyase are identified by using the following procedure. The Cys-3M3SH used in the procedure may be obtained using a method described in Chem. Biodivers., 2, 2005, 705-716. The purified S. hominis B10 C-S β lyase was prepared by cloning the gene encoding this enzyme into Escherichia coli using methodology known in the art. Recombinant S. hominis B10 C-S β-lyase was then expressed in E. coli and purified by immobilised metal ion affinity chromatography. M9 salts are mixtures of 6 g/L Na2HPO4, 3 g/L KH2PO4, 0.5 g/L NaCl, adjusted to pH 7.0 with NaOH.
# Glass reaction tubes were set up, each containing 2 mM Cys-3M3SH (dissolved in M9 salts), 50 μM pyridoxal phosphate, purified S. hominis B10 C-S β lyase to a final concentration of 10 μg/ml, and M9 salts (or, where appropriate, a test material dissolved in M9 salts at, for example, 20 mM) to adjust the volume to 500 μl. Enzyme only (C-S beta-lyase) and substrate only (Cys-3M3SH) reactions were also included in each experiment. The reactions were incubated with shaking at 35° C. for 24 hours. To measure released 3M3SH, each reaction vial was first centrifuged at 13,000 rpm for 2 minutes. A volume of 0.095 ml labelling solution, consisting of 0.080 ml dH2O, 0.010 ml Tris (pH 8.0) and 0.005 ml 5,5′-dithiobis-(2-nitrobenzoic acid) (DTNB) stock solution (50 mM sodium acetate, 2 mM DTNB, dissolved in dH2O) was added to each well of a micro-titre plate. 0.005 ml of each reaction supernatant was added to the wells of the micro-titre plate, which was then incubated at room temperature for 5 minutes. Absorbance (A412) values, which correlate with the concentration of 3M3SH present, were recorded using a spectrophotometer. […] In these cases, a HPLC analysis was carried out according to the methodology described in J. Pharm. Biomed. Anal. 2008; 48:1375-80 and FEMS Microbiol. Lett., 263(16), 2015, fnv111.
# [1] = material concentration = 2 millimolar
# [2] = material concentration = 20 millimolar
Molecule,% inhibition [1] [%],"% inhibition (material concentration = 2 millimolar, listed as Cl)",% inhibition [2] [%],susceptibility of S. hominis C-S β-lyase to inhibition by classical inhibitors
"N[C@H](COCc1ccccc1)C(=O)O [C1, O-benzyl-D-serine, reference compound]",0,does not present significant reduction of malodour,8.2,
"O=C(O)C1CSC2(CCCCC2)N1 (stereo not shown) [EX6, 1-thia-4-azaspiro[4.5]decane-3-carboxylic acid]",90.9,,100,
"NOCC(=O)O [aminooxyacetic acid, reference compound]",,,,much less susceptible to inhibition
"O=C(O)C1CSC2(CCN(Cc3ccccc3)CC2)N1 (stereo not shown) [EX7, 8-benzyl-1-thia-4,8-diazaspiro[4.5]decane-3-carboxylic acid]",11.9,,87.8,
"COc1cc(C2NC(C(=O)O)CS2)ccc1O (stereo not shown) [EX2, 2-(4-hydroxy-3-methoxyphenyl)-1,3-thiazolidine-4-carboxylic acid]",32.9,,100,
"1,8-Dioxa-4-azaspiro[4.5]decane-3-carboxylic acid(N-CBz protected) [EX17]",54.1,,,
"C=CCOc1ccc(C2NC(C(=O)O)CS2)cc1 (stereo not shown) [EX9, 2-(4-(allyloxy)phenyl)-1,3-thiazolidine-4-carboxylic acid]",39.7,,100,
"CCC(CC)C1NC(C(=O)O)CS1 (stereo not shown) [EX5, 2-(1-ethylpropyl)-4-thiazolidine-4-carboxylic acid]",46,,94.1,
"CCCCCCC1NC(C(=O)O)CS1 (stereo not shown) [EX11, 2-hexyl-1,3-thiazolane-4-carboxylic acid]",87.5,,100,
"N[C@H]1CONC1=O [L-cycloserine, reference compound]",,,,much less susceptible to inhibition
"O=C(O)C1CSC2(CCC3(CC2)OCCO3)N1 (stereo not shown) [EX3, 1,4-dioxa-9-thia-12-azadispirol[4.2.4.2]tetradecane-11-carboxylic acid]",32.3,,80.6,
"2-(2-furyl)1,3-thiazolide-4-carboxylic acid [EX4]",20.8,,80.4,
"COc1ccc(C2NC(C(=O)O)CS2)cc1O (stereo not shown) [EX1, 2-(3-hydroxy-4-methoxy-phenyl)-thiazolidine-4-carboxylic acid]",34.9,,100,
"O=C(O)C1CSC(c2ccccc2O)N1 (stereo not shown) [EX12, 2-(2-hydroxy-pheny)-thiazolidine-4-carboxylic acid]",46.5,,100,
"COc1ccc(C2NC(C(=O)O)CS2)cc1 (stereo not shown) [EX10, 2-(4-methoxyphenyl)-1,3-thiazolidine-4-carboxylic acid]",24.5,,88.2,
1-oxa-4-azaspiro[4.5]decane-3-carboxylic acid(N-CBz protected) [EX16],30.3,,,
"O=C(O)C1CSC(c2ccccc2)N1 (stereo not shown) [EX8, 2-phenylthiazolidine-4-carboxylic acid]",12.3,,95.9,
